According to paper PMC8305101, “Synthesis and Cytotoxicity Evaluation of Spirocyclic Bromotyrosine Clavatadine C Analogs” (Marine Drugs, 2021):
“And” between values parts separate entries of the source, which are not always exact repeats. Equal values may be shown once. Read-outs that look alike come from different tables or passages of the source.

Experiments:
[1] = tested on: human malignant melanoma A-375 cell line; experiment: Cytotoxicity in A-375 melanoma cells (CellTiter-Glo ATP viability); assay type: cell-based; settings: for CC50 / cytotoxicity at 50 µM: Homo sapiens; for CC50: read-out: CC50 (µM) in A-375 Cells; for Selectivity Index (SI): ratio of CC50 values between Hs27 fibroblasts and A-375 melanoma cells, SD in parentheses
Experimental: (§1) Analysis of selectivity to cancer cells. The cells were seeded to white frame and clear bottom 96-well plates (Perkin Elmer) at a density of 10,000 cells/well for the human malignant melanoma A-375 cell line (ATCC CRL-1619) and 7500 cells/well for the human skin fibroblast Hs27 cell line (ATCC CRL-1634). The cells were grown at 37 °C, 5% CO2 until they reached 70–80% confluence (approximately 24 h). Stock solutions of test compounds and a positive control (camptothecin, Sigma-Aldrich, St. Louis, MO, USA) were prepared in DMSO and diluted into the assay medium (growth medium with 5% FBS) to the final concentration. Final DMSO concentration was 0.5% in all samples. The culture medium was removed from the plate and compounds added, 200 µL/well. After a 48-h incubation, the amount of ATP, which is directly proportional to the number of viable cells present in culture, was quantified using CellTiter-Glo® Luminescent Cell Viability kit (Promega, Madison, WI, USA), according to manufacturer’s instructions. Origin Graphing and Analysis, version 9.55 (OriginLab, Northampton, MA, USA), was used for determination of CC50 values. The cancer cell selectivity index was calculated as a ratio of CC50 values between Hs27 fibroblasts and A-375 melanoma cells. Standard deviation of selectivity indices was calculated using Equation (1) (1) σ(x¯/y¯)=(σ(x)/x¯)^2+(σ(y)/y¯)^2

[2] = Cytotoxicity in Hs27 normal skin fibroblasts (CellTiter-Glo ATP viability); assay type: cell-based; settings: human, 48-h incubation, mean (SD) of 2–3 independent experiments in triplicate
Experimental: as §1

[3] = A-375, 48 h, read-out: Primary Test Results (Cytotoxicity % at 50 µM in A-375 Cells), 50 µM, A-375 cells, 48-h incubation, single experiment with three technical replicates
[4] = read-out: CC50 (µM) in Hs27 Cells
[5] = 50 µM, A-375 cells, 48-h incubation, single experiment with three technical replicates

Compound: COc1ccc(NC(=O)C2=NOC3(C=CC(=O)C=C3)C2)cc1Cl [Compound 20, N-(3-Chloro-4-methoxyphenyl)-8-oxo-1-oxa-2-azaspiro[4.5]deca-2,6,9-triene-3-carboxamide]
- CC50 ([1]; A-375, 48 h): 1.2 µM
- cytotoxicity at 50 µM [1, 3]: 100%
- Selectivity Index (SI) [1]: 1.3 (0.5)
- CC50 at 48 h [2, 4]: 1.5 µM

Compound: O=C(Nc1nc2c(s1)CCCC2)C1=NOC2(C=C(Br)C(=O)C(Br)=C2)C1 [Compound 42, 7,9-Dibromo-8-oxo-N-(4,5,6,7-tetrahydrobenzo[d]thiazol-2-yl)-1-oxa-2-azaspiro[4.5]deca-2,6,9-triene-3-carboxamide]
- CC50 ([1]; A-375, 48 h): 3.5 µM
- cytotoxicity at 50 µM [1, 3]: 97.5%
- Selectivity Index (SI) [1]: 1.3 (0.5)
- CC50 at 48 h [2, 4]: 4.4 µM

Compound: COc1ccc(CCNC(=O)C2=NOC3(C=CC(=O)C=C3)C2)cc1 [Compound 25, N-(4-Methoxyphenethyl)-8-oxo-1-oxa-2-azaspiro[4.5]deca-2,6,9-triene-3-carboxamide]
- CC50 ([1]; A-375, 48 h): 1.2 µM
- cytotoxicity at 50 µM [1, 3]: 100%
- Selectivity Index (SI) [1]: 1.7 (0.3)
- CC50 at 48 h [2, 4]: 2 µM

Compound: CC(C)N(C)C(=O)C1=NOC2(C=C(Br)C(=O)C(Br)=C2)C1 [Compound 14, 7,9-Dibromo-N-isopropyl-N-methyl-8-oxo-1-oxa-2-azaspiro[4.5]deca-2,6,9-triene-3-carboxamide]
- CC50 ([1]; A-375, 48 h): 7.2 µM
- cytotoxicity at 50 µM [1, 3]: 99.9%
- CC50 at 48 h [2, 4]: 7.8 µM

Compound: Cn1nc(-c2ccc(Cl)cc2)cc1NC(=O)C1=NOC2(C=C(Br)C(=O)C(Br)=C2)C1 [Compound 41, 7,9-Dibromo-N-[3-(4-chlorophenyl)-1-methyl-1H-pyrazol-5-yl]-8-oxo-1-oxa-2-azaspiro[4.5]deca-2,6,9-triene-3-carboxamide]
- CC50 ([1]; A-375, 48 h): 1.3 µM
- cytotoxicity at 50 µM [1, 3]: 97.6%
- Selectivity Index (SI) [1]: 1.1 (0.8)
- CC50 at 48 h [2, 4]: 1.4 µM

Compound: O=C1C=CC2(C=C1)CC(C(=O)N1CCOCC1)=NO2 [Compound 15, 3-(Morpholine-4-carbonyl)-1-oxa-2-azaspiro[4.5]deca-2,6,9-trien-8-one]
- CC50 ([1]; A-375, 48 h): 3.8 µM
- cytotoxicity at 50 µM [1, 3]: 96.1%
- Selectivity Index (SI) [1]: 0.7 (0.2)
- CC50 at 48 h [2, 4]: 2.5 µM

Compound: CNCCCOc1c(Br)cc(CCNC(=O)/C(Cc2cc(Br)c(OC)c(Br)c2)=N/O)cc1Br [Purpurealidin I 3, Purpurealidin I, reference compound]
- cytotoxicity at 50 µM ([1]; 50 µM, A-375 cells, 48-h incubation, single experiment with three technical replicates, read-out: Primary Test Results (Cytotoxicity % at 50 µM in A-375 Cells)): 98.9%
- CC50 ([1]; A-375 cells, 48-h incubation, mean (SD) of 2–3 independent experiments in triplicate): 3.7 µM
- Selectivity Index (SI) [1]: 1.3 (0.1)
- CC50 at 48 h ([2]; Hs27 skin fibroblast cells): 4.7 µM

Compound: COc1ccc(NC(=O)C2=NOC3(C=C(Br)C(=O)C(Br)=C3)C2)cc1Cl [Compound 21, 7,9-Dibromo-N-(3-chloro-4-methoxyphenyl)-8-oxo-1-oxa-2-azaspiro[4.5]deca-2,6,9-triene-3-carboxamide]
- CC50 ([1]; A-375, 48 h): 2.3 µM
- cytotoxicity at 50 µM [1, 3]: 101%
- Selectivity Index (SI) [1]: 2.2 (0.3)
- CC50 at 48 h [2, 4]: 5 µM

Compound: O=C1C=CC2(C=C1)CC(C(=O)NNC(=O)c1ccccn1)=NO2 [Compound 37, 8-Oxo-N’-picolinoyl-1-oxa-2-azaspiro[4.5]deca-2,6,9-triene-3-carbohydrazide]
- CC50 ([1]; A-375, 48 h): 2.5 µM
- cytotoxicity at 50 µM [1, 3]: 89.3%
- Selectivity Index (SI) [1]: 2.4 (0.3)
- CC50 at 48 h [2, 4]: 6 µM

Compound: O=C(Nc1ccc(C(F)(F)F)cn1)C1=NOC2(C=C(Br)C(=O)C(Br)=C2)C1 [Compound 30, 7,9-Dibromo-8-oxo-N-[5-(trifluoromethyl)pyridin-2-yl]-1-oxa-2-azaspiro[4.5]-deca-2,6,9-triene-3-carboxamide]
- CC50 ([1]; A-375, 48 h): 3.6 µM
- cytotoxicity at 50 µM [1, 3]: 98.1%
- Selectivity Index (SI) [1]: 0.6 (0.2)
- CC50 at 48 h [2, 4]: 2.3 µM

Compound: COc1ccc(CNC(=O)C2=NOC3(C=C(Br)C(=O)C(Br)=C3)C2)cc1 [Compound 24, 7,9-Dibromo-N-(4-methoxybenzyl)-8-oxo-1-oxa-2-azaspiro[4.5]deca-2,6,9-triene-3-carboxamide]
- CC50 ([1]; A-375, 48 h): 3.5 µM
- cytotoxicity at 50 µM [1, 3]: 97.8%
- Selectivity Index (SI) [1]: 0.9 (0.3)
- CC50 at 48 h [2, 4]: 3.3 µM

Compound: O=C(NCc1cccnc1)C1=NOC2(C=C(Br)C(=O)C(Br)=C2)C1 [Compound 36, 7,9-Dibromo-8-oxo-N-(pyridin-3-ylmethyl)-1-oxa-2-azaspiro[4.5]deca-2,6,9-triene-3-carboxamide]
- CC50 ([1]; A-375, 48 h): 3.4 µM
- cytotoxicity at 50 µM [1, 3]: 101%
- Selectivity Index (SI) [1]: 1.8 (0.2)
- CC50 at 48 h [2, 4]: 6.1 µM

Compound: CN(C)C(=O)C1=NOC2(C=C(Br)C(=O)C(Br)=C2)C1 [Compound 13, 7,9-Dibromo-N,N-dimethyl-8-oxo-1-oxa-2-azaspiro[4.5]deca-2,6,9-triene-3-carboxamide]
- CC50 ([1]; A-375, 48 h): 3.7 µM
- cytotoxicity at 50 µM [1, 3]: 99.8%
- CC50 at 48 h [2, 4]: 7.2 µM

Compound: O=C1C=CC2(C=C1)CC(C(=O)NCCc1c[nH]c3ccccc13)=NO2 [Compound 22, N-[2-(1H-Indol-3-yl)ethyl]-8-oxo-1-oxa-2-azaspiro[4.5]deca-2,6,9-triene-3-carboxamide]
- CC50 ([1]; A-375, 48 h): 0.7 µM
- cytotoxicity at 50 µM [1, 3]: 99.8%
- Selectivity Index (SI) [1]: 1.0 (0.3)
- CC50 at 48 h [2, 4]: 0.7 µM

Compound: N=C(N)NCCCCNC(=O)C1=NOC2(C=CC(=O)C=C2)C1 [Compound 11, N-(4-Guanidinobutyl)-8-oxo-1-oxa-2-azaspiro[4.5]deca-2,6,9-triene-3-carboxamide]
- Primary Test Results (Cytotoxicity % at 50 µM in A-375 Cells) [1, 5]: less than 25% and −8.2%

Compound: CN(C)C(=O)C1=NOC2(C=CC(=O)C=C2)C1 [Compound 12, N,N-Dimethyl-8-oxo-1-oxa-2-azaspiro[4.5]deca-2,6,9-triene-3-carboxamide]
- CC50 ([1]; A-375, 48 h): 2.1 µM
- cytotoxicity at 50 µM [1, 3]: 95.1%
- Selectivity Index (SI) [1]: 1.8 (0.6)
- CC50 at 48 h [2, 4]: 3.8 µM

Compound: O=C1C=CC2(C=C1)CC(C(=O)Nc1cc(Cl)cc(Cl)c1)=NO2 [Compound 18, N-(3,5-Dichlorophenyl)-8-oxo-1-oxa-2-azaspiro[4.5]deca-2,6,9-triene-3-carboxamide]
- CC50 ([1]; A-375, 48 h): 0.4 µM
- cytotoxicity at 50 µM [1, 3]: 100%
- Selectivity Index (SI) [1]: 2.0 (0.8)
- CC50 at 48 h [2, 4]: 0.8 µM

Compound: O=C(Nc1ccc(C(F)(F)F)nc1)C1=NOC2(C=C(Br)C(=O)C(Br)=C2)C1 [Compound 31, 7,9-Dibromo-8-oxo-N-[6-(trifluoromethyl)pyridin-3-yl]-1-oxa-2-azaspiro[4.5] deca-2,6,9-triene-3-carboxamide]
- CC50 ([1]; A-375, 48 h): 5.3 µM
- cytotoxicity at 50 µM [1, 3]: 98.6%
- Selectivity Index (SI) [1]: 0.4 (0.1)
- CC50 at 48 h [2, 4]: 2.1 µM

Compound: O=C1C=CC2(C=C1)CC(C(=O)NNC(=O)CN1CCOCC1)=NO2 [Compound 17, N’-(2-Morpholinoacetyl)-8-oxo-1-oxa-2-azaspiro[4.5]deca-2,6,9-triene-3-carbohydrazide]
- Primary Test Results (Cytotoxicity % at 50 µM in A-375 Cells) [1, 5]: 20.8%
- cytotoxicity at 50 µM [1, 3]: < 25%

Compound: O=C1C=CC2(C=C1)CC(C(=O)N1CCC(O)CC1)=NO2 [Compound 16, 3-(4-Hydroxypiperidine-1-carbonyl)-1-oxa-2-azaspiro[4.5]deca-2,6,9-trien-8-one]
- CC50 ([1]; A-375, 48 h): 4.9 µM
- cytotoxicity at 50 µM [1, 3]: 97.1%
- Selectivity Index (SI) [1]: 1.5 (0.2)
- CC50 at 48 h [2, 4]: 7.4 µM

Compound: O=C(NCCc1cccnc1)C1=NOC2(C=C(Br)C(=O)C(Br)=C2)C1 [Compound 34, 7,9-Dibromo-8-oxo-N-[2-(pyridin-3-yl)ethyl]-1-oxa-2-azaspiro[4.5]deca-2,6,9-triene-3-carboxamide]
- CC50 ([1]; A-375, 48 h): 5.1 µM
- cytotoxicity at 50 µM [1, 3]: 97%
- Selectivity Index (SI) [1]: 1.7 (0.6)
- CC50 at 48 h [2, 4]: 8.8 µM

Compound: 7,9-Dibromo-8-oxo-N’-picolinoyl-1-oxa-2-azaspiro[4.5]deca-2,6,9-triene-3-carbohydrazide [Compound 39]
- Primary Test Results (Cytotoxicity % at 50 µM in A-375 Cells) [1, 5]: 75.2%
